Test results: US20250339091A1, “HONEY BEE-DERIVED BIOACTIVE WOUND DRESSING WITH SUSTAINED ANTIMICROBIAL RELEASE” (priority 2025, published 2025)

Experiment: fluorescent dye diffusion assays in simulated wound fluid
Format: physicochemical
Method: For example, in experiments using rhodamine B as a tracer molecule, diffusion coefficients within the patterned hydrogel matrix increased from 1.4×10^−7 cm^2/s at 35° C. to 3.6×10^−7 cm^2/s at 37.5° C., confirming the gating effect of the thermoresponsive architecture. The permeability enhancement facilitates more rapid passive diffusion of bioactive agents—such as hydrogen peroxide from raw honey or flavonoids from propolis extract—from the surrounding microcapsules into the wound site, even before active actuator-based release is triggered. This early-stage, temperature-coupled passive transport acts as a preemptive therapeutic buffer, delivering antimicrobials during acute inflammatory flares while reducing latency between pathogenic escalation and drug availability.

diffusion coefficient within the patterned hydrogel matrix (at 35° C.): 1.4×10^−7 cm^2/s | diffusion coefficient within the patterned hydrogel matrix (at 37.5° C.): 3.6×10^−7 cm^2/s
SMILES: CCN(CC)c1ccc2c(-c3ccccc3C(=O)O)c3ccc(=[N+](CC)CC)cc-3oc2c1.[Cl-] [rhodamine B]
